The values below are quoted from earlier work in paper PMC8147660 (The Prostate, 2018).

The conditions of data set [1]: cleared via A2M-receptor/LRP in the liver.
Another data set addresses PSA. As to conditions: read-out: PSA Ki; described in previous studies.
A further data set deals with chymotrypsin. As to conditions: read-out: Ki for chymotrypsin; described in previous studies.

Consider “PSA-A2M: PSA complexed with the serum protease inhibitor alpha-2-macroglobulin”, for which, in data set [1], the “Plasma half-life of the complex” value was “a few minutes”. As for Ahx-FSQn(boro)Bpg, the results for the Ki on PSA and at chymotrypsin were 72 nM and 580 nM, respectively.
